US20240150293A1, “SPIROCYCLOHEXANE DERIVATIVES, PHARMACEUTICAL COMPOSITIONS CONTAINING THEM AND THEIR USES AS ANTI-APOPTOTIC INHIBITORS” (LES LABORATOIRES SERVIER, priority 2021, published 2024)
Like-named read-outs stand apart in the source and are kept apart here.

How the values were obtained:
[1] = tested on: H929 multiple myeloma tumor line; experiment: In vitro cytotoxicity, MTT assay (Example B, Method A); format: cell-based; conditions: H929 cells, 48 hours exposure, read-out: C50
Experimental: The cytotoxicity studies were carried out on the H929 multiple myeloma tumor line.
The cells are distributed onto microplates and exposed to the test compounds for 48 hours. The cell viability is then quantified by a colorimetric assay, the Microculture Tetrazolium Assay (Carmichael et al, Cancer Res. 1987, 47, 939-942).
The results are expressed in C50 which means concentration corresponding to […] of effect/inhibition.

[2] = biological target: Cy5-labelled Mcl1 (amino acids 171-321) C286S protein (UniProtKB Q07820) (Homo sapiens (Human), UniProt Q07820, C286S); experiment: Inhibition of Mcl-1 by the fluorescence quenching assay (Example A, Method B); format: binding
Sequence of Cy5-labelled Mcl1 (amino acids 171-321) C286S protein (Q07820 171-321 C286S): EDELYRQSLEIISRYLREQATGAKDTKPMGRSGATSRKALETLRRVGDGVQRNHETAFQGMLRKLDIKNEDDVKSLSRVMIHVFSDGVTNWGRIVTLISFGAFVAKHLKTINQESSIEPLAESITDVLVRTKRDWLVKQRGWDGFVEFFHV
Summary of the method: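 Eleven-point compound series incubated 2 h at room temperature with 1 nM Cy5-tagged protein and quencher-labelled PUMA peptide at 10, 20 or 400 nM in HEPES/NaCl/Tween 20, pH 7.4, 5% DMSO. IC50 for 50% fluorescence increase by 4-parameter fit, then Ki derived (complete cKi or estimated eKi).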

## C[C@@H](COc1c[nH]c2ccccc12)C[C@H]1Cc2ccccc2[C@]12CC[C@@](Nc1cccc(Cl)c1)(C(=O)O)CC2 [Example 628, (1r,2′S,4S)-4-(3-chloroanilino)-2′-{(2R)-3-[(1H-indol-3-yl)oxy]-2-methylpropyl}-2′,3′-dihydrospiro[cyclohexane-1,1′-indene]-4-carboxylic acid]
[1]; Homo sapiens, NCI-H929, 48 h
  IC50: 2.4 µM
[2]
  Ki: 0.0699 µM

## O=C(O)[C@]1(Nc2cccc(Cl)c2)CC[C@@]2(CC1)c1ccccc1CC2CC(COc1ccnc2ccsc12)Cc1ccccc1 (single isomer, unassigned) [Example 560, (1r,4r)-2′-{2-benzyl-3-[(thieno[3,2-b]pyridin-7-yl)oxy]propyl}-4-(3-chloroanilino)-2′,3′-dihydrospiro[cyclohexane-1,1′-indene]-4-carboxylic acid]
[1]
  IC50: 12.6 µM
[2]
  Ki: 0.092 µM

## C[C@@H](COc1ncnc2c1CCCC2)C[C@H]1Cc2ccccc2[C@]12CC[C@@](Nc1cccc(Cl)c1)(C(=O)O)CC2 [Example 637, (1r,2′S,4S)-4-(3-chloroanilino)-2′-{(2R)-2-methyl-3-[(5,6,7,8-tetrahydroquinazolin-4-yl)oxy]propyl}-2′,3′-dihydrospiro[cyclohexane-1,1′-indene]-4-carboxylic acid]
[1]; Homo sapiens, NCI-H929, 48 h
  IC50: 1.54 µM
[2]
  Ki: 0.00513 µM

## C[C@@H](COc1ccnc2c1C(F)(F)CCC2)C[C@H]1Cc2ccccc2[C@]12CC[C@@](Nc1cccc(Cl)c1)(C(=O)O)CC2 [Example 693, (1r,2′S,4S)-4-(3-chloroanilino)-2′-{(2R)-3-[(5,5-difluoro-5,6,7,8-tetrahydroquinolin-4-yl)oxy]-2-methylpropyl}-2′,3′-dihydrospiro[cyclohexane-1,1′-indene]-4-carboxylic acid]
[1]; Homo sapiens, NCI-H929, 48 h
  IC50: 0.527 µM
[2]
  Ki: 0.0037 µM

## CC(O)c1ccc2c(c1)[C@]1(CC[C@@](Nc3cccc(Cl)c3)(C(=O)O)CC1)[C@@H](C[C@@H](C)COc1ccnc3ccsc13)C2 (stereo partly drawn) [Example 722, (1r,2′S,4S)-4-(3-chloroanilino)-6′-(1-hydroxyethyl)-2′-{(2R)-2-methyl-3-[(thieno[3,2-b]pyridin-7-yl)oxy]propyl}-2′,3′-dihydrospiro[cyclohexane-1,1′-indene]-4-carboxylic acid]
[1]; Homo sapiens, NCI-H929, 48 h
  IC50: 0.244 µM
[2]
  Ki: 0.000349 µM

## C[C@@H]1CCCc2nccc(OCC(CF)CC3=Cc4ccccc4[C@]34CC[C@@](Nc3cccc(Cl)c3)(C(=O)O)CC4)c21 (single isomer, unassigned) [Example 515]
[1]
  IC50: 2.39 µM
[2]
  Ki: 0.0264 µM

## Cc1cc(OC[C@H](C)C[C@H]2Cc3ccccc3[C@]23CC[C@@](Nc2cccc(Cl)c2)(C(=O)O)CC3)c2c(n1)CCCC2C (single isomer, unassigned) [Example 662]
[1]
  IC50: 9.06 µM
[2]
  Ki: 0.0687 µM

## C[C@@H](COc1ccnc2c1[C@H](C)CCC2)C[C@@H]1Cc2ccc(CO)cc2[C@]12CC[C@@](Nc1cccc(Cl)c1)(C(=O)O)CC2 [Example 869, (1r,2′R,4R)-4-(3-chloroanilino)-6′-(hydroxymethyl)-2′-[(2R)-2-methyl-3-{[(5R)-5-methyl-5,6,7,8-tetrahydroquinolin-4-yl]oxy}propyl]-2′,3′-dihydrospiro[cyclohexane-1,1′-indene]-4-carboxylic acid]
[1]; Homo sapiens, NCI-H929, 48 h
  IC50: 0.193 µM
[2]
  Ki: 0.000384 µM

## C[C@@H](COc1ccnc2c1[C@H]1CCC[C@H]1C2)C[C@H]1Cc2ccccc2[C@]12CC[C@@](Nc1cccc(Cl)c1)(C(=O)O)CC2 (single isomer, unassigned) [Example 620, (1r,2′S,4S)-4-(3-chloroanilino)-2′-[(2R)-3-{[(4bR*,7aR*)-4b,5,6,7,7a,8-hexahydropentaleno[2,1-b]pyridin-4-yl]oxy}-2-methylpropyl]-2′,3′-dihydrospiro[cyclohexane-1,1′-indene]-4-carboxylic acid]
[1]
  IC50: 0.889 µM
[2]
  Ki: 0.0127 µM

## O=C(O)[C@]1(Nc2cccc(Cl)c2)CC[C@@]2(CC1)c1ccccc1CC2CC(COc1ccnc2c1CCC2)COc1ccnc2c1CCC2 (single isomer, unassigned) [Example 497, (1r,4r)-4-(3-chloroanilino)-2′-(3-[(6,7-dihydro-5H-cyclopenta[b]pyridin-4-yl)oxy]-2-{[(6,7-dihydro-5H-cyclopenta[b]pyridin-4-yl)oxy]methyl}propyl)-2′,3′-dihydrospiro[cyclohexane-1,1′-indene]-4-carboxylic acid]
[1]
  IC50: 1.22 µM
[2]
  Ki: 0.00134 µM

## C[C@@H](COc1ccncc1C1CC1)C[C@H]1Cc2ccccc2[C@]12CC[C@@](Nc1cccc(Cl)c1)(C(=O)O)CC2 [Example 577, (1r,2′S,4S)-4-(3-chloroanilino)-2′-{(2R)-3-[(3-cyclopropylpyridin-4-yl)oxy]-2-methylpropyl}-2′,3′-dihydrospiro[cyclohexane-1,1′-indene]-4-carboxylic acid]
[1]; Homo sapiens, NCI-H929, 48 h
  IC50: 1.19 µM
[2]
  Ki: 0.0104 µM

## C[C@@H](COc1ccnc2c1[C@@H](C)CCC2)C[C@H]1Cc2cc3c(cc2[C@]12CC[C@@](Nc1cccc(Cl)c1)(C(=O)O)CC2)OCO3 [Example 842, (1r,4S,6′S)-4-(3-chloroanilino)-6′-[(2R)-2-methyl-3-{[(5S)-5-methyl-5,6,7,8-tetrahydroquinolin-4-yl]oxy}propyl]-6′,7′-dihydro-2′H-spiro[cyclohexane-1,5′-indeno[5,6-d][1,3]dioxole]-4-carboxylic acid]
[1]; Homo sapiens, NCI-H929, 48 h
  IC50: 0.081 µM
[2]
  Ki: 0.00155 µM

## Cc1cc(C(C)O)cc2c1C=C(C[C@@H](C)COc1ccnc3c1[C@H](C)CCC3)[C@]21CC[C@](Nc2cccc(Cl)c2)(C(=O)O)CC1 (single isomer, unassigned) [Example 760]
[1]
  IC50: 0.0817 µM
[2]
  Ki: 0.000198 µM

## C[C@@H](COc1ccnc2ccsc12)C[C@@H]1Cc2cc(F)ccc2[C@]12CC[C@@](Nc1cccc(Cl)c1)(C(=O)O)CC2 [Example 738, (1r,2′R,4R)-4-(3-chloroanilino)-5′-fluoro-2′-{(2R)-2-methyl-3-[(thieno[3,2-b]pyridin-7-yl)oxy]propyl}-2′,3′-dihydrospiro[cyclohexane-1,1′-indene]-4-carboxylic acid]
[1]; Homo sapiens, NCI-H929, 48 h
  IC50: 0.468 µM
[2]
  Ki: 0.0074 µM

## C[C@@H]1CCCc2nccc(OCC(F)CC3Cc4ccccc4[C@]34CC[C@@](Nc3cccc(Cl)c3)(C(=O)O)CC4)c21 (single isomer, unassigned) [Example 507]
[1]
  IC50: 2.24 µM
[2]
  Ki: 0.00876 µM

## CC(O)c1ccc2c(c1)[C@]1(CC[C@@](Nc3cccc(Cl)c3)(C(=O)O)CC1)[C@@H](C[C@@H](C)COc1ccnc3c1[C@H](C)CC[C@H]3C)C2 (stereo partly drawn) [Example 865, (1r,2′S,4S)-4-(3-chloroanilino)-2′-[(2R)-3-{[(5R,8R)-5,8-dimethyl-5,6,7,8-tetrahydroquinolin-4-yl]oxy}-2-methylpropyl]-6′-(1-hydroxyethyl)-2′,3′-dihydrospiro[cyclohexane-1,1′-indene]-4-carboxylic acid]
[1]; Homo sapiens, NCI-H929, 48 h
  IC50: 0.0459 µM
[2]
  Ki: 0.000204 µM

## CC(=O)c1ccc2c(c1)[C@]1(CC[C@@](Nc3cccc(Cl)c3)(C(=O)O)CC1)C(C[C@@H](C)COc1ccnc3c1[C@H](C)CCC3)=C2 [Example 856, (1r,4R)-6′-acetyl-4-(3-chloroanilino)-2′-[(2R)-2-methyl-3-{[(5R)-5-methyl-5,6,7,8-tetrahydroquinolin-4-yl]oxy}propyl]spiro[cyclohexane-1,1′-indene]-4-carboxylic acid]
[1]; Homo sapiens, NCI-H929, 48 h
  IC50: 0.0748 µM
[2]
  Ki: 0.000864 µM

## CC(CC1Cc2ccccc2[C@]12CC[C@@](Nc1cccc(Cl)c1)(C(=O)O)CC2)C1CCC(=O)CC1 (single isomer, unassigned) [Example 571, (1r,4r)-4-(3-chloroanilino)-2′-[2-(4-oxocyclohexyl)propyl]-2′,3′-dihydrospiro[cyclohexane-1,1′-indene]-4-carboxylic acid]
[1]
  IC50: 30 µM
[2]
  Ki: 0.107 µM

## C[C@@H](COc1ccnc2c1[C@H](C)CCC2)C[C@@H]1Cc2ccc(COC3CCCO3)cc2[C@]12CC[C@@](Nc1cccc(Cl)c1)(C(=O)O)CC2 (stereo partly drawn) [Example 871, (1r,2′R,4R)-4-(3-chloroanilino)-2′-[(2R)-2-methyl-3-{[(5R)-5-methyl-5,6,7,8-tetrahydroquinolin-4-yl]oxy}propyl]-6′-{[(oxolan-2-yl)oxy]methyl}-2′,3′-dihydrospiro[cyclohexane-1,1′-indene]-4-carboxylic acid]
[1]; Homo sapiens, NCI-H929, 48 h
  IC50: 0.114 µM
[2]
  Ki: 0.000737 µM

## C[C@@H](COc1ccnc2c1[C@H](C)CCC2)C[C@H]1Cc2ccccc2[C@]12CC[C@@](Nc1ccc(F)c(Cl)c1)(C(=O)O)CC2 [Example 702, (1r,2′S,4S)-4-(3-chloro-4-fluoroanilino)-2′-[(2R)-2-methyl-3-{[(5R)-5-methyl-5,6,7,8-tetrahydroquinolin-4-yl]oxy}propyl]-2′,3′-dihydrospiro[cyclohexane-1,1′-indene]-4-carboxylic acid]
[1]; Homo sapiens, NCI-H929, 48 h
  IC50: 0.0415 µM
[2]
  Ki: 0.000194 µM

## CC(C)(COc1ccnc2sccc12)CC1Cc2ccccc2C12CCC(Nc1cccc(Cl)c1)(C(=O)O)CC2 (single isomer, unassigned) [Example 622, (1r,4r)-4-(3-chloroanilino)-2′-{2,2-dimethyl-3-[(thieno[2,3-b]pyridin-4-yl)oxy]propyl}-2′,3′-dihydrospiro[cyclohexane-1,1′-indene]-4-carboxylic acid]
[1]; Homo sapiens, NCI-H929, 48 h
  IC50: 17.1 µM
[2]
  Ki: 0.0446 µM

## C[C@@H]1CCCc2nccc(OCC(CF)CC3=Cc4ccccc4[C@]34CC[C@@](Nc3cccc(Cl)c3)(C(=O)O)CC4)c21 (single isomer, unassigned) [Example 514]
[1]
  IC50: 0.32 µM
[2]
  Ki: 0.00184 µM

## C[C@@H](COc1ccnc2c1[C@H](C)CCC2)CC1Cc2c(F)c(Cl)ccc2[C@]12CC[C@@](Nc1cccc(Cl)c1)(C(=O)O)CC2 (single isomer, unassigned) [Example 749]
[1]
  IC50: 0.0724 µM
[2]
  Ki: 0.000321 µM
